Measurements reported in US9115137B2, “2,3,4,5-tetrahydro-1H-pyrido[4,3-B]indole compounds and methods of use thereof” (priority 2008, dated 2015).

Assays:
[1] = biological target: T1, human recombinant histamine H2 receptor (Homo sapiens, UniProt P25021); assay: Histamine H2 radioligand binding ([125I]aminopotentidine); conditions: compound at 1 μM; CHO K1 cells; read-out: Histamine Binding (1 μM) H2, percent inhibition of specific binding
T1 construct: expressed in transfected cells; host or cells: CHO-K1 cells
Summary of the method: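 CHO-K1 membranes expressing the receptor were incubated in 50 mM phosphate buffer pH 7.4 with 0.1 nM [125I]aminopotentidine for 120 minutes at 25° C., with nonspecific binding defined by 3 μM tiotidine. Compounds were tested at 1 μM (1% DMSO); bound radioligand was counted after filtration, values given as percent inhibition of specific binding.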

[2] = biological target: T2, human recombinant adrenergic α1D receptor (Homo sapiens, UniProt P25100); assay: Adrenergic α1D radioligand binding ([3H]Prozosin); conditions: compound at 1 μM; HEK-293 cells; read-out: Adrenergic (1 μM) α1D, percent inhibition of specific binding
T2 construct: expressed in transfected cells; host or cells: HEK-293 cells
T2 sequence (P25100 1-572): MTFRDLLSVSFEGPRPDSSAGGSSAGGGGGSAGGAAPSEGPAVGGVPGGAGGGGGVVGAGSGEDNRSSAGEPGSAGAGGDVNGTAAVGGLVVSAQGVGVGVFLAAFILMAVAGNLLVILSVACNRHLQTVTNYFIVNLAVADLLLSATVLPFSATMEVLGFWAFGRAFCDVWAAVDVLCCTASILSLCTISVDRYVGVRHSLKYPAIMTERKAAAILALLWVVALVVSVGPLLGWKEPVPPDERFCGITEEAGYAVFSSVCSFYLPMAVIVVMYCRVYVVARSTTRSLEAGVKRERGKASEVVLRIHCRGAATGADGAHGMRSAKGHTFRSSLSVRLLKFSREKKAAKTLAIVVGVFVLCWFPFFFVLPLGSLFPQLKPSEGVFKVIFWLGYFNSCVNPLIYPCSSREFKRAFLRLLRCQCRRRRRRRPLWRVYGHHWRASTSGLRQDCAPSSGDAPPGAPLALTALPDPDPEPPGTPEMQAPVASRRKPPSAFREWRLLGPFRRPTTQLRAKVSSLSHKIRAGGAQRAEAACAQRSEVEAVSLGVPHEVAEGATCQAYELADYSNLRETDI
Summary of the method: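 Values are percent inhibition of specific [3H]prazosin (0.6 nM) binding, determined by filtration after 60 min at 25° C, pH 7.4 Tris-HCl, on recombinant human α1D receptor in HEK-293 cells. Compounds tested at 1 μM or below in 1% DMSO; 10 μM phentolamine set non-specific binding.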

[3] = biological target: T3, human recombinant histamine H1 receptor (Homo sapiens, UniProt P35367); assay: Histamine H1 radioligand binding ([3H]Pyrilamine); conditions: compound at 1 μM; CHO cells; read-out: Histamine Binding (1 μM) H1, percent inhibition of specific binding
T3 construct: expressed in transfected cells; host or cells: CHO cells
Summary of the method: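 Recombinant human H1 receptor expressed in CHO cells, in Tris-HCl pH 7.4 with MgCl2, NaCl and sucrose, incubated with 1.2 nM [3H]pyrilamine for 180 min at 25 °C; non-specific binding defined with 1 μM pyrilamine. Compounds tested at 1 μM in 1% DMSO; filter-bound counts give percent inhibition of specific binding.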

[4] = biological target: T4, human recombinant serotonin (5-Hydroxytryptamine) 5-HT6 receptor (Homo sapiens, UniProt P50406); assay: Serotonin 5-HT6 radioligand binding ([3H]LSD); conditions: compound at 1 μM; HeLa cells; read-out: Serotonin (1 μM) 5-HT6, percent inhibition of specific binding
T4 construct: expressed in transfected cells; host or cells: human HeLa cells
Summary of the method: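 HeLa membranes expressing receptor, in 50 mM Tris-HCl pH 7.4 with 150 mM NaCl, 2 mM ascorbate, 0.001% BSA, incubated with 1.5 nM [3H]LSD for 120 min at 37 °C. Nonspecific binding defined with 5 μM 5-HT.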

T1 sequence (P25021 whole entry): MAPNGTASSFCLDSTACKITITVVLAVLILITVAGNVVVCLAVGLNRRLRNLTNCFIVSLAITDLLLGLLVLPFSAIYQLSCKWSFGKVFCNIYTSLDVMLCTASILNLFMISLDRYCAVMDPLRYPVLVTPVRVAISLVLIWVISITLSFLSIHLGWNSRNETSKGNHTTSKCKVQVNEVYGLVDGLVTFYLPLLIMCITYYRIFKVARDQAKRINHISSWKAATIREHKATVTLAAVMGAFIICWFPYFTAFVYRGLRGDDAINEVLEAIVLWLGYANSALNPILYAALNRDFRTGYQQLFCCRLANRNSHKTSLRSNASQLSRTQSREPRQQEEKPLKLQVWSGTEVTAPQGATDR
T3 sequence (P35367 whole entry): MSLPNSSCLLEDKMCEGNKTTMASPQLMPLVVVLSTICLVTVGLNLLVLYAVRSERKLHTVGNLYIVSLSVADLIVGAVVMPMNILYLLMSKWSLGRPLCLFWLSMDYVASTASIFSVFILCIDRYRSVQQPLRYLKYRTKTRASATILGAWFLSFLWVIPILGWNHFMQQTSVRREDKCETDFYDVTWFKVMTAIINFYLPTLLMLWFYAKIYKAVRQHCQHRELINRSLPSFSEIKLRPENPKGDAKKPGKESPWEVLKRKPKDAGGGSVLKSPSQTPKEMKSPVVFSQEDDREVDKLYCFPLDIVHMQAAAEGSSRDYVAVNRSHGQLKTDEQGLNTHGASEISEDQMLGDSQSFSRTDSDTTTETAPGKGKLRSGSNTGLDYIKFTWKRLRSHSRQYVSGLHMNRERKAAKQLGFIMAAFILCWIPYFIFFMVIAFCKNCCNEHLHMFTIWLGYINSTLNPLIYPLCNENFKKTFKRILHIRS
T4 sequence (P50406 whole entry): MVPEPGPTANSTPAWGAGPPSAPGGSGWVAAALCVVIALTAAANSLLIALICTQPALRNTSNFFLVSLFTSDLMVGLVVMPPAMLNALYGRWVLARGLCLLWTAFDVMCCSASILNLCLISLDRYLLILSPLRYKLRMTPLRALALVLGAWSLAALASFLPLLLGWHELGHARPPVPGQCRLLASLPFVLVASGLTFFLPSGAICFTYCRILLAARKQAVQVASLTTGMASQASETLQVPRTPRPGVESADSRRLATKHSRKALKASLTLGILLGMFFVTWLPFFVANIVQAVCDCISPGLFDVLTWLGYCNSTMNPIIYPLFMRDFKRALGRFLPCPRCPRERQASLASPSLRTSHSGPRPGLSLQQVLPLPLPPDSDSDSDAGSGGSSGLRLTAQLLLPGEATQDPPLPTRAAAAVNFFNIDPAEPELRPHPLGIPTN

Row | SMILES | inhibition at 1 µM [1] [%] | inhibition at 1 µM [2] [%] | inhibition at 1 µM [3] [%] | inhibition at 1 µM [4] [%]
1 | Cc1ccc2c(c1)c1c(n2CCNC(=O)c2ccc(F)cc2)CCN(C)C1 [Compound 66, 4-fluoro-N-(2-(1,2,3,4-tetrahydro-2,8-dimethylpyrido[4,3-b]indol-5-yl)ethyl)benzamide] | 49 | 76 | 66 | 35
2 | CN1CCc2c(c3cc(Cl)ccc3n2CCC(N)=O)C1 [Compound 67, 3-(8-chloro-1,2,3,4-tetrahydro-2-methylpyrido[4,3-b]indol-5-yl)propanamide] | -6 | 32 | 70 | 24
3 | Cc1ccc2c(c1)c1c(n2CCNC(=O)C2CCCC2)CCN(C)C1 [Compound 68, N-(2-(1,2,3,4-tetrahydro-2,8-dimethylpyrido[4,3-b]indol-5-yl)ethyl)cyclopentanecarboxamide] | 31 | 66 | 58 | 15
4 | Cc1ccc2c(c1)c1c(n2CCNC(=O)c2ccncc2C)CCN(C)C1 [Compound 69, N-(2-(1,2,3,4-tetrahydro-2,8-dimethylpyrido[4,3-b]indol-5-yl)ethyl)-3-methylpyridine-4-carboxamide] | 14 | 30 | 88 | -4
5 | Cc1ccc2c(c1)c1c(n2C2CCCCC2O)CCN(C)C1 (centres unmarked) [Compound 73, 2-(1,2,3,4-tetrahydro-2,8-dimethylpyrido[4,3-b]indol-5-yl)cyclohexanol] | 8 | 6 | 2 | 7
